Drawing on PubChem BioAssay (NCI), this text covers TGI for 26 molecules.

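Exposure lasted 48 hours, with cells grown in 96-well plates and compounds tested at five concentrations. TGI is the concentration that stops growth completely.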 Bounds are passed on as bounds.

Common to all, as to assay: DTP human tumour cell line panel, 48 h
In test [1] the test system is SNB-19 CNS.
Test [2] relates to LOX IMVI melanoma.
Test [3] concerns SW-620 colon.
For test [4], the system named is IGROV1 ovarian.
Test [5] relates to RPMI-8226 leukemia.
Test [6] deals with NCI-H522 lung.
Test [7] relates to RXF 393 renal.
Test [8] concerns OVCAR-8 ovarian.
Test [9] concerns MDA-N.
Test [10] relates to HL-60(TB) leukemia.

For orientation: TGI means the concentration giving total growth inhibition. The low end stands for greater sensitivity of the cells, the high end for lower sensitivity of the cells. Turning to `O=P(O)(O)c1ccccc1Oc1ccccc1`, the concentration for total growth inhibition (TGI) in [1], in test [2], in [3], in test [4], in test [5] and in test [6] was over 100 µM throughout. The TGI in test [7], in test [8], in test [9] and in test [10] was over 100 µM in each case.

In the case of `Cc1[nH]c(=O)nc(NCCNCCO)c1C(=O)Nc1cccc2cc3ccccc3cc12`, the concentration for total growth inhibition (TGI) in [1], in [2], in test [3], in test [4], in test [5] and in test [6] was over 100 µM throughout. In addition, the TGI in test [7], in [8], in test [9] and in test [10] was over 100 µM in each case.

`COc1ccccc1C1Nn2c(nc3ccccc3c2=O)N1c1ccc(C)cc1` (stereo not drawn): the TGI came out at 21.2 µM in test [1]; 20.8 µM in test [2]; 18.2 µM in test [3]; 19.8 µM in test [4]; 25.9 µM in test [5]; 28.5 µM in test [6]. Also, the total growth inhibition concentration (TGI) in test [7] was 24 µM; in [8] it was 17 µM; in test [9], 20.9 µM; in [10], 49.1 µM.

Take `CC(C)C(=O)C(C)(C)CCc1ccccn1`: the TGI in [1], in [2], in test [3], in test [4], in [5] and in test [6] was over 100 µM in each case. The concentration for total growth inhibition (TGI) in test [7], in test [8], in [9] and in test [10] was over 100 µM throughout.

`C=C1C(OC2O[C@@H]3O[C@@]4(C)CC[C@H]5[C@H](C)CC[C@@H](C2=C)[C@@]35O4)O[C@@H]2O[C@@]3(C)CC[C@H]4[C@H](C)CC[C@@H]1[C@@]24O3` (stereo partly drawn): the TGI in [1], in test [2], in test [3], in test [4], in [5] and in test [6] was over 50 µM throughout. The TGI in test [7], in [9] and in [10] was over 50 µM throughout.

Consider `Cc1cc(S(=O)(=O)Nc2n[nH]c(-c3ccccn3)n2)c(S)cc1Cl`, for which the TGI in test [1] is 60.6 µM; in [2], over 100 µM; in test [3] it was 54.2 µM; in [4] it was 85.4 µM; in [5], over 100 µM; in test [6], 72.4 µM. Also, the TGI is 34.1 µM in test [7], 30.4 µM in test [8], over 100 µM in test [9] and 41.2 µM in test [10].

As for `COc1cc(C(=O)Oc2ccc3c(c2)OCO3)cc(OC)c1OC`, the TGI in test [1], in test [2], in [3], in [4], in test [5] and in test [6] was over 100 µM in each case. The TGI in test [7], in test [8], in [9] and in test [10] was over 100 µM in each case.

With `COc1cc(CC(C)NC(C)=O)cc(OC)c1` (stereo not drawn), the TGI in test [1], in test [2], in test [3], in [4], in test [5] and in test [6] was over 100 µM each time. Moreover, the TGI in test [7], in [8], in [9] and in test [10] was over 100 µM each time.

On to `CCC(O)(Cc1ccc(OC)cc1)c1ccc(OC)cc1` (stereo not drawn), for which the TGI in [1], in test [2], in test [3], in test [4], in test [5] and in test [6] was over 100 µM in each case. The TGI in test [7], in test [8], in test [9] and in test [10] was over 100 µM in each case.

On to `COc1cc(C(c2c(O)c3ccccc3oc2=O)c2c(O)c3ccccc3oc2=O)cc(Br)c1O`, for which the total growth inhibition concentration (TGI) in [1] was 36.1 µM; in test [2] it was 33.8 µM; in test [3], 48.4 µM; in test [4], 30 µM; in test [5] it was 80.4 µM; in test [6], 26.8 µM. Moreover, the TGI in test [7] stood at 39.6 µM; in test [8], 32.3 µM; in test [9], 36 µM; in test [10], 64.2 µM.

Take `O=C1NC2CCCCC2N=C1CC(=O)c1ccc(Br)cc1` (stereo not drawn): the TGI in test [1] is over 100 µM; in test [2], over 100 µM; in [3], over 100 µM; in [4], over 100 µM; in test [5] it was 7.16 µM; in test [6], over 100 µM. Besides, the total growth inhibition concentration (TGI) in test [7] is over 100 µM; in [8], 19.8 µM; in test [9] it was over 100 µM; in [10] it was over 100 µM.

For the molecule `O=c1c(Cc2ccc(Cl)cc2)nnc2sc(-c3ccc(-c4ccc(F)c(Cl)c4)o3)nn12`, the TGI in test [1], in test [2], in test [3], in test [4], in test [5] and in test [6] was over 100 µM in each case. In addition, the TGI in [7], in test [8], in test [9] and in [10] was over 100 µM throughout.

In the case of `CC(C)c1cccc(C(C)C)c1NC(=O)/C(CC(=O)CC(c1ccccc1)c1c(O)c2ccccc2oc1=O)=N/O` (stereo not drawn), the TGI in test [1], in test [2], in [3], in [4], in test [5] and in test [6] was over 100 µM in each case. Besides, the TGI in test [7], in [8], in [9] and in [10] was over 100 µM throughout.

Consider `CC1CCC2(NC1)OC1CC3C4CC=C5CC(OC6OC(CO)C(OC7OC(C)C(O)C(O)C7O)C(O)C6OC6OC(C)C(O)C(O)C6O)CCC5(C)C4CCC3(C)C1C2C` (stereo not drawn), for which the TGI in test [1] turned out to be 28.3 µM; in test [2], 19.9 µM; in [3], 22.3 µM; in test [4], 15.5 µM; in test [5], 32.5 µM; in [6], 3.43 µM. In addition, the TGI in [7] is 26.5 µM; in test [8], 8.31 µM; in test [9] it was 4.99 µM; in test [10], over 36 µM.

Take `O=c1nc2c(c(-c3ccc(Br)cc3)[nH]1)COC/C2=C\c1ccc(Br)cc1`: the TGI in [1], in [2], in test [3], in test [4], in [5] and in [6] was over 50 µM in each case. The TGI in test [7], in test [8], in [9] and in test [10] was over 50 µM in each case.

For the molecule `N#CC1(O)CCCCCCCCCCC1`, the TGI in test [1], in [2], in [3], in test [4], in test [5] and in test [6] was over 100 µM each time. Besides, the TGI in [7], in [8], in test [9] and in test [10] was over 100 µM each time.

In the case of `C/C=C(/C)C(=O)OC1CC(C)[C@H]2CC(=O)C(C)=C2CC1C(C)(C)OC(C)=O` (stereo partly drawn), the TGI is over 100 µM in test [1]; 36.2 µM in test [2]; over 100 µM in test [3]; over 100 µM in test [4]; 60.8 µM in test [5]; 53 µM in test [6]. The TGI in [7] was 54.6 µM; in test [8] it was over 100 µM; in test [9], over 100 µM; in test [10], 49.8 µM.

Regarding `CCP(=O)(OC)C1=CCN(C(=O)OCC[Si](C)(C)C)CC1` (stereo not drawn), the concentration for total growth inhibition (TGI) in [1], in test [2], in test [3], in test [4], in test [5] and in test [6] was over 100 µM each time. The TGI in test [7], in test [8], in test [9] and in test [10] was over 100 µM each time.

Consider `CCn1c2ccc(C(=O)CCCN3CCCCC3)cc2c2cc(C(=O)CCCN3CCCCC3)ccc21`, for which the total growth inhibition concentration (TGI) in test [1] worked out at 10.6 µM; in test [2] it was 4.47 µM; in test [3] it was 3.9 µM; in test [4] it was 8.73 µM; in test [5], 4.7 µM; in test [6] it was 4.05 µM. Further, the TGI in test [7] was 7.31 µM; in test [8], 6.6 µM; in [9], 5.7 µM; in [10] it was over 100 µM.

With `Cc1cc2ncn(C3CCCCO3)c2cc1C` (stereo not drawn), the TGI in test [1], in [2], in [3], in test [4], in test [5] and in [6] was over 100 µM throughout. Also, the TGI in [7], in [8], in test [9] and in test [10] was over 100 µM throughout.

As for `CN1C(=O)N(C)C(O)C(Cl)(Br)C1=O` (stereo not drawn), the TGI in test [1], in [2], in test [3], in test [4], in test [5] and in [6] was over 100 µM each time. The TGI in test [7], in [8], in test [9] and in test [10] was over 100 µM each time.

`COC(=O)C1C(C(=O)OC)C2(OC(c3ccc(Cl)cc3)=CC2=O)C12OC(c1ccc(Cl)cc1)=CC2=O` (stereo not drawn): the TGI in test [1] was over 100 µM; in test [2], 57.4 µM; in [3], over 100 µM; in test [4], 47.7 µM; in test [5], 37.2 µM; in [6] it was 36.1 µM. The TGI in test [7] was determined as 33.2 µM; in test [9], 47.3 µM; in [10] it was 8.29 µM.

As to `Nc1nc(Cl)cc(NCC2(O)CC2)n1`, the TGI in test [1], in [2], in test [3], in test [4], in [5] and in test [6] was over 100 µM throughout. Also, the TGI in test [7], in test [8], in test [9] and in test [10] was over 100 µM throughout.

Regarding `CCCCSc1nsc(N(C(=O)c2ccccc2)C(=O)c2ccccc2)n1`, the TGI is over 100 µM in test [1]; over 100 µM in test [2]; over 100 µM in [3]; over 100 µM in test [4]; 47.2 µM in test [5]; 69.5 µM in test [6]. For the same molecule, the TGI was over 100 µM in test [7], over 100 µM in test [8], over 100 µM in [9] and 74 µM in test [10].

As for `CC1C(NNc2ccccc2)Oc2cc3c(cc2C1c1ccccc1O)OCO3` (stereo not drawn), the concentration for total growth inhibition (TGI) in [1] is 27.4 µM; in [2], 28.6 µM; in test [3], 28.6 µM; in test [4] it was 19.3 µM; in test [5], 24.7 µM; in [6] it was 14.2 µM. Further, the TGI in [7] turned out to be 45.9 µM; in test [8] it was 86.8 µM; in test [9], 18.4 µM; in test [10], 15.1 µM.

For the molecule `O=c1[nH]c2nc3ccccc3nc2[nH]c1=O`, the TGI in test [1], in test [2], in test [3], in test [4], in [5] and in [6] was over 100 µM each time. In addition, the TGI in [7], in test [8], in test [9] and in test [10] was over 100 µM each time.
